Measurements as given in ChEMBL document CHEMBL5352402, “Discovery of novel non-nucleoside inhibitors with high potency and selectivity for DNA methyltransferase 3A” (Eur J Med Chem, 2022).
One block for each molecule: values may come before it.

Key:
[1] = target: T1, DNMT3A2/3L complex (Homo sapiens) (UniProt Q9Y6K1+Q9UJW3); assay: (§1) Inhibition of N-terminal His-tagged human DNMT3A (623 to 912 residues)/N-terminal GST-tagged human DNMT3L (160 to 387 residues) co-expressed in baculovirus infected Sf9 cells assessed as DNA methylation using DNA oligonucleotide IDT-01 as substrate at 10 uM preincubated for 15 mins followed by substrate addition in presence of [3H]-SAM and measured after 4 hrs by radioactive methylation assay; conditions: time 255.0 min
T1 sequence (Q9UJW3 whole entry, looked up, the tested form may be a part): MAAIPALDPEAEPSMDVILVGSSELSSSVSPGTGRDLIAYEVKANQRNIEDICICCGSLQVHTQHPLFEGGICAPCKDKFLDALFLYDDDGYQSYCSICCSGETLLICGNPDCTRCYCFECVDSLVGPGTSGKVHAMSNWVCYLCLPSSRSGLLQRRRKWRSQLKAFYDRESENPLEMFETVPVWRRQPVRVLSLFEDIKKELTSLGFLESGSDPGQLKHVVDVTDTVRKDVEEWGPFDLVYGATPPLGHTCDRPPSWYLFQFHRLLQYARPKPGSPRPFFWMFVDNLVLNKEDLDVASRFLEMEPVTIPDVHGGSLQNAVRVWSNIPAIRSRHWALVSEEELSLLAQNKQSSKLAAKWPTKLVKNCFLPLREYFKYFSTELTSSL
T1 sequence (Q9Y6K1 whole entry, looked up, the tested form may be a part): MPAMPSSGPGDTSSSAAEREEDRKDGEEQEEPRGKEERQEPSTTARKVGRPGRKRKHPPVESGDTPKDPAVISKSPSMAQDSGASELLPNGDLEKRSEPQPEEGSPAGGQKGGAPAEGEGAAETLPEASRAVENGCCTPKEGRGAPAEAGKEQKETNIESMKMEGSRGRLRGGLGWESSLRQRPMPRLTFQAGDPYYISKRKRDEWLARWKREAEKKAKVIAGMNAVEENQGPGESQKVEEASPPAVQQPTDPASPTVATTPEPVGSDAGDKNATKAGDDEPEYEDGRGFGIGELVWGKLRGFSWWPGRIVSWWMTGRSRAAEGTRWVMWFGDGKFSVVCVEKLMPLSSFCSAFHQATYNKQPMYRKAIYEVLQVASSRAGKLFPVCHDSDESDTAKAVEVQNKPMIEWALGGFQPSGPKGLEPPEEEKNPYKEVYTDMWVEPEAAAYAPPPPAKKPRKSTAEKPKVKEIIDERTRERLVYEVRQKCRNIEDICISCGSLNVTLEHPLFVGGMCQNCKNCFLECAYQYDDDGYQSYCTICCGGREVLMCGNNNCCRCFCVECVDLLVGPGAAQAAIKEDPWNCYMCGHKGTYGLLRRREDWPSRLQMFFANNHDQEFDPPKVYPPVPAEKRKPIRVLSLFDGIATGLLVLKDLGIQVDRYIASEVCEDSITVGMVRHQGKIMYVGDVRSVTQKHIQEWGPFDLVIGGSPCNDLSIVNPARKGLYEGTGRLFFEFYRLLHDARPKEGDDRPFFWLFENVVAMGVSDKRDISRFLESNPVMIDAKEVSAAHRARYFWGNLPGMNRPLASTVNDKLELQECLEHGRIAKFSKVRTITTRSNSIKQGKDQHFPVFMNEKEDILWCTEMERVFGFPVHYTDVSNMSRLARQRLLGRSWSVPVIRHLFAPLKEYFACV

[2] = target: T1, DNMT3A2/3L complex (Homo sapiens); assay: as §1, with “100” for “10”; conditions: time 255.0 min
DNMT3A2/3L complex = DNMT3A2/3L complex (Homo sapiens, UniProt Q9Y6K1); assay: as §1, with “substrate” for “substrate at 10 uM”
Chain of DNMT3A2/3L complex (Q9Y6K1 whole entry, looked up, one chain of several): as the sequence (Q9Y6K1 whole entry, looked up, the tested form may be a part) above

THP-1 [3] = assay: Antiproliferative activity against human THP-1 cells assessed as inhibition of cell proliferation at 100 uM incubated for 24 to 72 hrs by MTT assay; format: functional, cell-based; conditions: time 24-72 hrs, TDE = time-dependent effect
U-937 [4] = assay: Antiproliferative activity against human U-937 cells assessed as inhibition of cell proliferation at 100 uM incubated for 24 to 72 hrs by MTT assay; format: functional, cell-based; conditions: time 24-72 hrs, TDE = time-dependent effect
K562 [5] = assay: Antiproliferative activity against human K562 cells assessed as inhibition of cell proliferation at 100 uM incubated for 24 to 72 hrs by MTT assay; format: functional, cell-based; conditions: time 24-72 hrs, TDE = time-dependent effect
DU-145 [6] = assay: Antiproliferative activity against human DU-145 cells assessed as inhibition of cell proliferation at 0.1 to 100 uM incubated upto 72 hrs by MTT assay; format: functional, cell-based; conditions: dose 0.1-100 µM
THP-1 [7] = assay: Antiproliferative activity against human THP-1 cells assessed as inhibition of cell proliferation at 0.1 to 100 uM incubated upto 72 hrs by MTT assay; format: functional, cell-based; conditions: dose 0.1-100 µM
[8] = target: DNA (cytosine-5)-methyltransferase 1 (Homo sapiens, UniProt P26358); assay: Inhibition of N-terminal GST-tagged full-length recombinant human DNMT1 assessed as DNA methylation using pdI-pdC DNA as substrate preincubated for 15 mins followed by substrate addition in presence of [3H]-SAM and measured after 150 mins by radioactive methylation assay
Chain of DNA (cytosine-5)-methyltransferase 1 (P26358 whole entry): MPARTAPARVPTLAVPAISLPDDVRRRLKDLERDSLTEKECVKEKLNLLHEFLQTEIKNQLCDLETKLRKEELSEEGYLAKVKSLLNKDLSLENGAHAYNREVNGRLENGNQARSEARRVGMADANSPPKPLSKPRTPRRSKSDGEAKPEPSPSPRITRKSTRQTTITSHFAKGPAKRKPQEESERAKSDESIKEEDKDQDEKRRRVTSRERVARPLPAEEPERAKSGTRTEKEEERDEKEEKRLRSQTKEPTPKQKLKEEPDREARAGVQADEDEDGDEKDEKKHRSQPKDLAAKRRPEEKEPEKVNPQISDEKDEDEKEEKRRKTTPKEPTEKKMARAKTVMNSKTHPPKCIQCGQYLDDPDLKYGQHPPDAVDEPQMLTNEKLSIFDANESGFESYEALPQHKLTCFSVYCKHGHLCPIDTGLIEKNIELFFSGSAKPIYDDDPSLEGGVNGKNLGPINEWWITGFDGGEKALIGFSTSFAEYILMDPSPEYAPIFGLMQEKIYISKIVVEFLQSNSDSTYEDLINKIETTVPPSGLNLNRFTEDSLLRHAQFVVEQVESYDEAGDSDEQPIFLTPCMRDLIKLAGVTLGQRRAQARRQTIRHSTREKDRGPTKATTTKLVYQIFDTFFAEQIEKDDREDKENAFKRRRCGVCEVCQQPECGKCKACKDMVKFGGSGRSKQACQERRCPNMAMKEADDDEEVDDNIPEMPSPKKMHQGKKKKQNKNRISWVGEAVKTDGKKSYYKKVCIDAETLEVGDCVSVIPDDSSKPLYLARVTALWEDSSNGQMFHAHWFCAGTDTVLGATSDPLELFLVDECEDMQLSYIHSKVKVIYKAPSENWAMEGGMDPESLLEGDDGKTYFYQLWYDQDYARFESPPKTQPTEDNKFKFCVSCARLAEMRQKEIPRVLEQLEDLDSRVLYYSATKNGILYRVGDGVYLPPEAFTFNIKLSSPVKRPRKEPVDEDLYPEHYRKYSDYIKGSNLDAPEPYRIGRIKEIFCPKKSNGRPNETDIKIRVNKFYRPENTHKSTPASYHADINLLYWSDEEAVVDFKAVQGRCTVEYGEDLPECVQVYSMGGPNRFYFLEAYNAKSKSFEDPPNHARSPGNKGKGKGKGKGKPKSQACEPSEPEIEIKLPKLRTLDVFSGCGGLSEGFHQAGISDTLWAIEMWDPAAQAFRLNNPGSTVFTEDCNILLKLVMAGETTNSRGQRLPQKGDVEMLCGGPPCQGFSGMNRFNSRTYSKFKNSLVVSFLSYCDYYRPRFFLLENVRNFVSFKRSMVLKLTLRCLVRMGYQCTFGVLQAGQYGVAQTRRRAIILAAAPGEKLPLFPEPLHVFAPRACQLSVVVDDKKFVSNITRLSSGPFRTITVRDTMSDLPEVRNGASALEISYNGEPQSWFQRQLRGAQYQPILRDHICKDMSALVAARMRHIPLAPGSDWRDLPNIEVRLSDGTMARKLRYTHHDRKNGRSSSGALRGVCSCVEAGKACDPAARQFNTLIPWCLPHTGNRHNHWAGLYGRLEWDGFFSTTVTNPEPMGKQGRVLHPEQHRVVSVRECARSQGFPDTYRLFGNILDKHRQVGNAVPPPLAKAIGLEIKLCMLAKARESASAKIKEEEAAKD

K562 [9] = assay: Antiproliferative activity against human K562 cells assessed as inhibition of cell proliferation incubated for 72 hrs by MTT assay; format: functional, cell-based; conditions: K562, 72 h
U-937 [10] = assay: cells; conditions: Homo sapiens, U-937, 72 h
Description: Antiproliferative activity against human U-937 cells assessed as inhibition of cell proliferation incubated for 72 hrs by MTT assay

U-937 [11] = assay: Antiproliferative activity against human U-937 cells assessed as inhibition of cell proliferation at 0.1 to 100 uM incubated upto 72 hrs by MTT assay; format: functional, cell-based; conditions: dose 0.1-100 µM
THP-1 [12] = assay: Antiproliferative activity against human THP-1 cells assessed as inhibition of cell proliferation incubated for 72 hrs by MTT assay; format: functional, cell-based; conditions: THP-1, 72 h
A549 [13] = assay: Antiproliferative activity against human A549 cells assessed as inhibition of cell proliferation at 0.1 to 100 uM incubated upto 72 hrs by MTT assay; format: functional, cell-based; conditions: dose 0.1-100 µM
HCT-116 [14] = assay: cells; conditions: Homo sapiens, HCT-116, 72 h
Description: Antiproliferative activity against human HCT-116 cells assessed as inhibition of cell proliferation incubated for 72 hrs by MTT assay

A549 [15] = assay: cells; conditions: Homo sapiens, A549, 72 h
Description: Antiproliferative activity against human A549 cells assessed as inhibition of cell proliferation incubated for 72 hrs by MTT assay

K562 [16] = assay: Antiproliferative activity against human K562 cells assessed as inhibition of cell proliferation at 0.1 to 100 uM incubated upto 72 hrs by MTT assay; format: functional, cell-based; conditions: dose 0.1-100 µM
[17] = target: T2, Histone-lysine N-methyltransferase EHMT2 (Homo sapiens, UniProt Q96KQ7); assay: Inhibition of N-terminal GST-tagged human G9a expressed in baculovirus infected Sf9 cells using biotinylated histone H3 peptide as substrate preincubated for 15 mins followed by substrate addition in presence of SAM and measured after 60 mins by AlphaLISA assay
T2 sequence (Q96KQ7 whole entry): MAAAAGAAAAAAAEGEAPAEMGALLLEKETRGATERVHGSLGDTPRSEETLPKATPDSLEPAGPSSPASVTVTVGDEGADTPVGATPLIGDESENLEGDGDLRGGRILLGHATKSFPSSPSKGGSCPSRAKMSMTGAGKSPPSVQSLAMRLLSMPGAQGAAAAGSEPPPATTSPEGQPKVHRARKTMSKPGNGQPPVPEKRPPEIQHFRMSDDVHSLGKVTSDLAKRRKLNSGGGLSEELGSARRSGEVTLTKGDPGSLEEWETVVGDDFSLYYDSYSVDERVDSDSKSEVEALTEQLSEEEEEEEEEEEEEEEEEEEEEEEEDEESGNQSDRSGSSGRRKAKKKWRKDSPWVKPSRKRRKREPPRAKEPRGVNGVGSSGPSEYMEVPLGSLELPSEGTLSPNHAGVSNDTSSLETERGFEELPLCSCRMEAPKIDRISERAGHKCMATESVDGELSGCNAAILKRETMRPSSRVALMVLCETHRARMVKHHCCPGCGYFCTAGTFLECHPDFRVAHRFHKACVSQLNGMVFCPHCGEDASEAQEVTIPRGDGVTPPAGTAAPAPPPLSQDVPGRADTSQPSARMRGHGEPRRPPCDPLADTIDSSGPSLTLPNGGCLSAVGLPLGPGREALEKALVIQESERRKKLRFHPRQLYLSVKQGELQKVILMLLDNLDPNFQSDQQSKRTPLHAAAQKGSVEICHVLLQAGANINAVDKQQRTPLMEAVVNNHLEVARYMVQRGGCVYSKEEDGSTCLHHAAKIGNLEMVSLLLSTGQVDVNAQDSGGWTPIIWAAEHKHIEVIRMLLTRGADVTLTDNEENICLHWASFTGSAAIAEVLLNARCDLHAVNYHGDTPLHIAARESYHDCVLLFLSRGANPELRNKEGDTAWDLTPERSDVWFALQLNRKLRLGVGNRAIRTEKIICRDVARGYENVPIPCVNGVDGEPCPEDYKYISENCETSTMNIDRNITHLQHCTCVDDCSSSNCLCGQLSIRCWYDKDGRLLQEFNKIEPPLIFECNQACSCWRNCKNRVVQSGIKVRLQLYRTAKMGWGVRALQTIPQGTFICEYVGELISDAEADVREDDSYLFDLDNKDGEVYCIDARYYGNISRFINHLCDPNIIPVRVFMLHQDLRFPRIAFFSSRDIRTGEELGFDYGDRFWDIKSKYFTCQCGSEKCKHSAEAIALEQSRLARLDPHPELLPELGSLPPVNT

A549 [18] = assay: Antiproliferative activity against human A549 cells assessed as inhibition of cell proliferation at 100 uM incubated for 24 to 72 hrs by MTT assay; format: functional, cell-based; conditions: time 24-72 hrs, TDE = time-dependent effect
DU-145 [19] = assay: Antiproliferative activity against human DU-145 cells assessed as inhibition of cell proliferation incubated for 72 hrs by MTT assay; format: functional, cell-based; conditions: DU-145, 72 h
[20] = Cytotoxicity activity against human PBMC cells assessed as inhibition of cell proliferation incubated for 72 hrs by MTT assay; format: toxicity, cell-based
HCT-116 [21] = assay: Antiproliferative activity against human HCT-116 cells assessed as inhibition of cell proliferation at 0.1 to 100 uM incubated upto 72 hrs by MTT assay; format: functional, cell-based; conditions: dose 0.1-100 µM
HCT-116 [22] = assay: Antiproliferative activity against human HCT-116 cells assessed as inhibition of cell proliferation at 100 uM incubated for 24 to 72 hrs by MTT assay; format: functional, cell-based; conditions: time 24-72 hrs, TDE = time-dependent effect
DU-145 [23] = assay: Antiproliferative activity against human DU-145 cells assessed as inhibition of cell proliferation at 100 uM incubated for 24 to 72 hrs by MTT assay; format: functional, cell-based; conditions: time 24-72 hrs, TDE = time-dependent effect
DNMT3B = DNMT3B (Homo sapiens, UniProt Q9UBC3); assay: as §1, with “DNMT3B (564” for “DNMT3A (623”, “853” for “912”, “substrate” for “substrate at 10 uM”

Structure (SMILES): Cc1oc2ncn(Cc3cccnc3)c(=O)c2c1C(=O)Nc1ccc(S(N)(=O)=O)nc1
inhibition [1]: 11.3%
inhibition [2]: 48%
IC50 (DNMT3A2/3L complex): > 100 µM

Structure (SMILES): Cc1oc2ncn(CCCN3CCCCC3)c(=O)c2c1C(=O)Nc1ccc(S(N)(=O)=O)nc1
inhibition [1]: 66%
Activity (THP-1 [3]): Tde
Activity (U-937 [4]): Tde
Activity (K562 [5]): Tde
Activity (DU-145 [6]): Dose-Dependent Effect
inhibition [2]: 89.8%
Activity (THP-1 [7]): Dose-Dependent Effect
IC50 [8]: 15.9 µM
IC50 (K562 [9]): 5.4 µM
IC50 (U-937 [10]): 3.5 µM
Activity (U-937 [11]): Dose-Dependent Effect
IC50 (THP-1 [12]): 4.2 µM
Activity (A549 [13]): Dose-Dependent Effect
IC50 (HCT-116 [14]): 1.6 µM
IC50 (A549 [15]): 8.5 µM
Activity (K562 [16]): Dose-Dependent Effect
IC50 [17]: 14.9 µM
IC50 (DNMT3A2/3L complex): 1.3 µM
Activity (A549 [18]): Tde
IC50 (DU-145 [19]): 4.1 µM
IC50 at 72 h [20]: 144 µM
Activity (HCT-116 [21]): Dose-Dependent Effect
Activity (HCT-116 [22]): Tde
Activity (DU-145 [23]): Tde
IC50 (DNMT3B): 64.7 µM

Structure (SMILES): Cc1sc2ncn(CCCN(C)C)c(=O)c2c1C(=O)Nc1ccc(C#N)nc1
inhibition [1]: 28.9%
inhibition [2]: 37.8%

Structure (SMILES): Cc1sc2ncn(CCCN(C)C)c(=O)c2c1C(=O)Nc1ccc(S(N)(=O)=O)nc1
inhibition [1]: 51.3%
inhibition [2]: 57.5%

Structure (SMILES): Cc1oc2ncn(CCCN3CCCCC3)c(=O)c2c1C(=O)Nc1ccc(C#N)cc1
inhibition [1]: 32.9%
inhibition [2]: 44%

Structure (SMILES): Cc1oc2ncn(CCN3CCCC3)c(=O)c2c1C(=O)Nc1ccc(C#N)cc1
inhibition [1]: 47.5%
inhibition [2]: 48.6%

Other lines, results leading:

inhibition [2]: 18.1%
Structure (SMILES): Cc1oc2ncn(Cc3ccncc3)c(=O)c2c1C(=O)Nc1ccc(S(N)(=O)=O)nc1

inhibition [1]: 8.3%
inhibition [2]: 40.4%
IC50 (DNMT3A2/3L complex): > 100 µM
Structure (SMILES): Cc1sc2ncn(CCN3CCOCC3)c(=O)c2c1C(=O)Nc1ccc(S(N)(=O)=O)nc1

inhibition [1]: 1%
inhibition [2]: 5.8%
Structure (SMILES): Cc1oc2ncn(CCN3CCOCC3)c(=O)c2c1C(=O)Nc1ccc(C#N)cc1

inhibition [1]: 36.4%
inhibition [2]: 36%
Structure (SMILES): Cc1oc2ncn(CCCN(C)C)c(=O)c2c1C(=O)Nc1ccc(C#N)cc1

inhibition [2]: 28.6%
Structure (SMILES): Cc1oc2ncn(C(C)c3ccccc3)c(=O)c2c1C(=O)Nc1ccc(S(N)(=O)=O)nc1 (stereo not given)
